US9765063B2, “Amido compounds as RORγt modulators and uses thereof” (New York University, priority 2011, dated 2017)
“Also recorded” adds a separate entry of the source. Read-outs that look alike come from different tables or passages of the source.

How the values were obtained:
Assay type in all cases: cell-based
[1] = test system: mouse Th17 cell differentiation; test: Th17 assay: mouse Th17 polarization (IL-17a producing cells, FACS); conditions: for IC50: naive mouse CD4 T cells, TGFβ and IL6, compounds added Day 1, analyzed Day 4, read-out: Th 17 IC50
Description: (§1) Percentage of DMSO treated IL-17a producing cells was set at 100. Naive mouse CD4 T cells (CD25^−, CD62L^+, and CD44^low-int) were sorted and cultured with CD3/CD28 stimulatory antibodies in the presence of TGFβ (0.1 ng/ml) and IL6 (20 ng/ml). Compounds were added on Day 1 and cells were analyzed on Day 4. For intracellular cytokine staining, cells were incubated for 5 h with phorbol ester (50 ng/ml; Sigma), ionomycin (500 ng/ml; Sigma) and GolgiStop (BD). When needed, surfaces were stained by incubation for 15 min on ice with PECy7-conjugated CD4 (BD Biosciences). The Cytofix/Cytoperm buffer set (BD) was used for intracellular staining. Cells were fixed and made permeable for 30 min on ice and were stained for 30 min on ice in permeabilization buffer with Alexa647-conjugated anti-IL17a (eBioscience) and PE-conjugated anti-IFNg (eBioscience). An LSR II (BD Biosciences) and FlowJo software (Tree Star) were used for flow cytometry. RORg IC50 value acquired from the S2 cell reporter assay is listed for comparison.
as §1, with “With respect to the methodological details pertaining to FIG. 1, naive” for “Percentage of DMSO treated IL-17a producing cells was set at 100. Naive mouse”, “(BD).” for “(BD). When needed, surfaces were stained by incubation for 15 min on ice with PECy7-conjugated CD4 (BD Biosciences).”, “anti-IFNγ” for “anti-IFNg”, “cytometry.” for “cytometry. RORg IC50 value acquired from the S2 cell reporter assay is listed for comparison.”

[2] = test system: human Th1 cell differentiation; test: Human Th1 cell differentiation, IFNγ production (counter-screen, FIG. 2); conditions: FIG. 2, FACS, 0.5 μM, naive CD4 T cells, IL12 and IL2
Description: (§2) For Th1 differentiation, IL12 (10 ng/ml) and IL2 (100 U/ml) were added to naive CD4 T cell cultures instead of TGFβ and IL6.

[3] = test system: human Th17 cell differentiation; test: Human Th17 cell differentiation (FACS, FIG. 2); conditions: FIG. 2, FACS, 0.5 μM
Description: • 1) S2 cell reporter system: Identified hits from HTS are further screened and their specificity confirmed by testing against RORγ-luc, VP16-luc, RORα-luc, and DHR3-luc reporter S2 cell lines. Compounds either having no activity on VP16, RORα, and DHR3 or having ten times higher IC50 values on such reporters are selected for further tests. • 2) Cytokine induced mouse Th17 cells differentiation. Effects on mouse endogenous RORγt in a relevant physiological setting were determined by testing compounds in the Th17 cell differentiation assay. Compounds having RORγt inhibitory activity are predicted to suppress Th17 cell differentiation. Th1 or regulatory T cell differentiation was used as a counter-screen method to select specific compounds that only affect Th17 cell differentiation without having pleiotrophic effects on general T cell proliferation or cytokine production. • 3) ROR dependent Th17 cell differentiation. Compounds were further tested, by examining their effects on T cells expressing RORα or RORγ. […] Compounds affecting IL17a production or ROR regulatory pathways, however, are expected to inhibit both. • 4) Human Th17 cell differentiation. Compound effects on human RORγt will be tested by treating human cord blood CD4 T cells with select compounds to determine if such compounds alter differentiation into Th17 lineages.
as §2

RORγt [4] = test: RORγt overexpression dependent IL17a production in human CD4 T cells (FIG. 3); conditions: FIG. 3, FACS, 0.5 μM
Description: (§3) Briefly, CD3+ CD4+ CD45RA+ naive human T cells were isolated from peripheral blood derived from healthy donors. The naive T cells were cultured in XVIVO-20 (Lonza) medium for 7 days in the presence of IL2 and stimulatory CD3 and CD28 antibodies. Cells were infected with lentivirus encoding human RORα or RORγ and compound or DMSO was added on day 2. FACS plot analysis is shown after gating on GFP expressing (virus infected) cells.

RORγt [5] = molecular target: T1, RORγt (Mus musculus, UniProt P51450); test: RORγt S2 cell reporter assay (Gal4-RORγt fusion, UAS-luciferase)
T1 construct: expressed in transfected cells; the other entry of the earlier key: GAL4 (P04386, Regulatory protein GAL4)
T1 sequence (P51450 with tags, fused parts or gaps): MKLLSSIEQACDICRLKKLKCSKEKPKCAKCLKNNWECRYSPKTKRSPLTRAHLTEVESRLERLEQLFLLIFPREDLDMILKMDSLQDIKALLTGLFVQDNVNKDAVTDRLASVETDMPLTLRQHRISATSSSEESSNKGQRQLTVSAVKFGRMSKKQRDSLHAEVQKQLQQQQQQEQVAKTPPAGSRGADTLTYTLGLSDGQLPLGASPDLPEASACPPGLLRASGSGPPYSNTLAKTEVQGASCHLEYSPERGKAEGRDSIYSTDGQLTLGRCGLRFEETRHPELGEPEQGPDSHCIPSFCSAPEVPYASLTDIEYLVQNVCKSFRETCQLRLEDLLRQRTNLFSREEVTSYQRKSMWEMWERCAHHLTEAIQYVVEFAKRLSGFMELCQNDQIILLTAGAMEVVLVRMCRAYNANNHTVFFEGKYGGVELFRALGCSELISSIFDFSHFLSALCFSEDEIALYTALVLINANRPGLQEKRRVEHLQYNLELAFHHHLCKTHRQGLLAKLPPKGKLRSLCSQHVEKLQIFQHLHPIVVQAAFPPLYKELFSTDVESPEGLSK
Text: Methods: The Drosophila S2 cell line was originally purchased from Invitrogen and was maintained in Schneider's medium supplemented with 10% heat-inactivated bovine fetal calf serum and antibiotics (Invitrogen). […] The resulting chimeric gene was subcloned into the copper inducible pMT/V5-His A vector (available from Invitrogen).
Renilla luciferase construct under the polIII promoter was obtained from Dr. Dasgupta's laboratory (NYU medical center). In order to generate stable cell lines, cells were co-transfected with pMT-G4DBD-RORγt, pMT-G4DBD-RORα, pMT-G4DBD-DHR3, or pMT-G4DBDVP16 and pHygro plasmids (Invitrogen) and screened for resistant colonies in the presence of hygromycin (0.3 mg/mL). […] Using similar methods, stable clones with genomic integration of the luciferase reporters and other reporters were generated such as pMT-RORα_luc, pMT-DHR3_luc, or pMT-VP16_luc.
Methods: 600 G4DBD-RORγ/γt-luc reporter (#25) or G4DBD-VP16-luc reporter cells were distributed into each well of 1,536-well white bottom plates in 4 μl S2 cell culture volume containing hygromicin (300 μg/ml) and puromycin (2 μg/ml). […] After one-hour incubation, 1 of culture medium solution containing copper sulfate (to final 0.7 mM) and 10 μM RORγ/γt antagonists were added to each well. After 20-hour incubation at ambient temperature, 1.5 μl firefly luciferase detection mix was added and the luciferase activities were measured in 10 min. ViewLux luminometers were used for measuring luciferase signal.
A cell-based reporter assay was used to detect RORγt-mediated activity. This assay, called RORγt employed Drosophila Schneider cells that were stably transfected with two vectors: a gene expressing a fusion of the Gal4 DNA binding domain and RORγt transactivation domain under the control of the metallothionine promoter and a Photinus luciferase reporter regulated by the Gal4 binding site enhancer, UAS. […] Cells (600/well) were dispensed into white solid 1536-well plates (Greiner) using a solenoid-based dispenser. Following transfer of […] compound or DMSO vehicle by a pin tool, the plates were incubated 1 hr at ambient temperature, and 1 uL/well copper sulfate (700 uM final concentration) was added. The plates were centrifuged 15 s at 1000 RPM and incubated 20 hr at ambient temperature. After addition of 1.5 uL Photinus luciferase detection reagent, the plates were incubated 10 min at ambient temperature and then read by a ViewLux (Perkin Elmer) to detect luminescence. […] Efficacy is expressed as % of the maximal response of control inhibitor (Digoxin), set at 100%.

RORα = RORα overexpression dependent IL17a production in human CD4 T cells (FIG. 3); conditions: FIG. 3, FACS, 0.5 μM; listed as NCGC00238427
Description: as §3

Compound | IC50 [1] [µM] | Th1 cell differentiation, as measured by IFNγ production [2] | human Th17 cell differentiation [3] | RORγt overexpression dependent IL17a production in human CD4 T cells (RORγt [4]) | Emax (RORγt [5]; Table 1, % of the maximal response of control inhibitor (Digoxin), set at 100%, read-out: Efficacy (%)) [%] | IC50 (RORγt [5]; Table 1, Drosophila S2 cells, luciferase reporter, read-out: IC50) [µM] | IC50 (RORγt [5]; Table 2, from the S2 cell reporter assay, listed for comparison, read-out: S2 cell RORg IC50) [µM] | mouse Th17 cell differentiation, as measured by IL17a production ([1]; FIG. 1, FACS, at the indicated concentrations) | Th1 cell differentiation, as measured by IFNγ production ([2]; listed as NCGC00238427) | human Th17 cell differentiation ([3]; listed as NCGC00238427) | RORα overexpression dependent IL17a production in human CD4 T cells (RORα) | RORγt overexpression dependent IL17a production in human CD4 T cells (RORγt [4]; listed as NCGC00238427)
COc1cc(O)c(C(CC(=O)N2CC(C)CC(C)C2)c2cccc(C(=O)O)c2)c(OC)c1 (stereo not shown) [Compound 101, 3-(3-(3,5-Dimethylpiperidin-1-yl)-1-(2-hydroxy-4,6-dimethoxyphenyl)-3-oxopropyl)benzoic acid] | > 20 | neither of which exhibits the ability to suppress human Th17 or Th1 cell differentiation | neither of which exhibits the ability to suppress human Th17 or Th1 cell differentiation | neither of which exhibits the ability to inhibit RORγt dependent human Th17 cell differentiation | 88.7 | 1 to 10 | 1 to 10 |  |  |  |  | 
COc1cc(O)c(C(CC(=O)N2CC(C)CC(C)C2)c2ccc3c(c2)OCO3)c(OC)c1 (stereo not shown) [RC1, reference compound] | 1 to 10 |  |  |  |  |  |  | suppress mouse Th17 cell differentiation | does not inhibit Th1 cell differentiation | selectively suppress human Th17; also recorded: selectively suppresses human Th17 cell differentiation | unaffected | selectively inhibit RORγt dependent; also recorded: selectively inhibits RORγt overexpression dependent IL17a production
